Laboratory results reported in patent publication US20030119733A1, “Compositions and methods for inhibiting hepatocyte invasion by malarial sporozoites” (New York University, priority 1992, published 2003).
Entries after “also recorded” stand apart in the source; their conditions may differ. Where no end group is shown, it is not given here. The star is where a group is joined. Cam = NC(=O)C*

Assays:
[1] = system: binding of CSFZ (Cys) to HepG2 cells; assay: Peptide inhibition of CSFZ (Cys) binding to HepG2 cells; set-up: species or system human; conditions: peptides 0-250 μg/ml
Protocol: For indirect immunofluorescence, HepG2 cells (ATCC number HB8065, Rockville, Md.; Knowles, B. P., et al., Science 209:497-499, 1980) were grown on slides (Cel-Line Associates, Inc., Newfield, N.J.) overnight in minimum essential medium with 10% fetal calf serum (FCS-MEM; GIBCO, Grand Island, N.Y.), 1 mM L-glutamine (GIBCO), 3 mg/ml glucose (Sigma), 1×nonessential amino acids (GIBCO), 50 μg/ml penicillin, and 100 μg/ml streptomycin (GIBCO). For the enzyme-linked immunosorbent assay, 10^5 HepG2 cells were deposited in 96-well Falcon tissue culture plates (Becton Dickinson, Oxnard, Calif.) and grown for 24 hr. in FCS-MEM. The cells were fixed with 4% paraformaldehyde, washed three times with PBS, and stored at 4° C. in BSA/TPBS until use. Before the experiments, plates were blocked for 2 hr. at 37° C. with 1% gelatin, 0.05% Tween in PBS (pH 7.4) (gelatin/TPBS). The cells were sequentially incubated at 37° C. with 50 μl of recombinant protein diluted in gelatin/TPBS for 1 hr. MAb 2A10 at a concentration of 10 μg/ml for 30 min. and goat anti-mouse immunoglobulin conjugated to alkaline phosphatase (Boehringer Mannheim) for 30 min. […] After 15 min., fluorescence was read in a Fluoroskan II plate reader (Flow Lab Inc., McLean, Va.) with excitation filter 350 nm and emission filter 460 nm. In the peptide inhibition experiments, wells were first incubated for 1 hr. at 37° C. with peptides diluted in gelatin/TPBS, washed three times with gelatin/TPBS, and then incubated with recombinant CSFZ (Cys) at a concentration of 2.5 μg/ml for 1 hr. at 37° C.
The same assay system was used to evaluate the ability of the various synthetic peptides to inhibit the binding of CSFZ (Cys) to the HepG2 cells. Paraformaldehyde-fixed immobilized HepG2 cells were pre-incubated with peptides at concentrations between 0 and 250 μg/ml, washed, and incubated with CSFZ (Cys) at 2.5 μg/ml. After washing, the cells were incubated with MAb 2A10 followed by anti-mouse IgG conjugated to alkaline phosphatase. […] Each peptide concentration was assayed in triplicate wells and the means of the fluorescent reading were calculated. […] The cysteines and the sulfhydryl groups were necessary for inhibition (Pf1A, Pf1B and Pf2A were not active). […] The results are shown graphically in FIG. 7 wherein percent inhibition (after subtraction of background) is plotted as a function of peptide concentration. Pf1: open circles; Pf2: dark circles; Pf3: open upright triangles; Pf1A dark square; Pf1B open inverted triangles; Pf2A dark triangle; Pf70 open diamond; Pf25C dark diamond. Standard deviations were no greater than ±5% of the plotted mean.

[2] = system: binding of CS27IVC to liver sections; assay: Peptide inhibition of CS27IVC binding to frozen liver sections; set-up: species or system rat; conditions: peptide preincubation, up to 500 μg/ml
Protocol: The procedure was carried out essentially as described by Dukor P. et al., Proc. Natl. Acad. Sci. USA 67:991-997, 1970 and Imai Y. et al., J. Cell. Biol. 111:1225-1232, 1990. Rats were euthanized with CO2. Small pieces of the liver, spleen, heart, brain and lung were removed, snap frozen in liquid nitrogen, embedded in Tissue Tek O.C.T. (Miles, Inc., Naperville, Ill.), and cut into 5 μm sections. Sections were dried for 30 min., fixed for 10 min. in 4% paraformaldehyde, rinsed three times with phosphate-buffered saline (PBS), and either used immediately or stored at 4° C. in 1% BSA, 0.5% Tween, PBS (BSA/TPBS). After blocking with 100 mM glycine (pH 7.2) and with BSA/TPBS, the sections were sequentially incubated at 37° C. with recombinant proteins for 1 hr, 10 μg/ml MAb 2A10 for 45 min., and rat anti-mouse immunoglobulin conjugated to fluorescein isothiocyanate (Boehringer Mannheim, Indianapolis, Ind.) for 45 min. The slides were counterstained for 10 min. with 0.3% Evans blue, rinsed extensively in PBS, and finally observed under a fluorescence microscope. For peptide inhibition experiments, the sections were first incubated with the peptide at various concentrations in BSA/TPBS for 1 hour at 37° C., washed six times with BSA/TPBS, and then stained with 2.5 μg/ml CS recombinant protein as described above. In a few experiments, the tissues were fixed for 10 min. with methanol, acetone, or 4% paraformaldehyde containing 0.5% glutaraldehyde.

[3] = system: Vivax-2 binding to sulfatide; assay: Inhibition of binding of Vivax-2 to sulfatide; set-up: species or system P. vivax; conditions: for effect on binding to sulfatide: 1 mg/ml
Protocol: (§1) Solid phase binding assays: Thirty μl of lipids or steroids dissolved in methanol (20-250 μg/ml) were dried into wells of microassay plates (Cat.# 3911—Falcon—Oxnard, Calif.). The plates were then blocked with 1% BSA/PBS pH 7.4 (BSA/PBS) for 30 minutes. Wells were incubated with recombinant protein (or with parasite extract) in PBS/BSA for 1 hour, washed 3 times with BSA/PBS, incubated for 1 hour with monoclonal antibodies 2F2 or 2A10 in BSA/PBS, washed 3 times, and then incubated with (10^5 cpm/well) ^125I protein A (Amersham Corp., Arlington Hts., Ill.). In the case of the P. berghei CS protein, wells were incubated with ^125I labelled mAb 3D11. Wells were washed again and the bound radioactive protein was counted in an LKB gamma-counter (model #1260, Pharmacia, Inc., Gaithersburg, Md.). For inhibition assays, the recombinant proteins were mixed with dilutions of the various polymers in BSA/PBS, the mixture was loaded into the wells of the microtiter plates, and the binding assay performed as above. See also, Roberts, et al. J. Biol. Chem. 260:9405-9411, 1985.

P. berghei sporozoites = assay: Infection assay of HepG2 cells with polymers; type: cell-based
Protocol: Infection assay: Semiconfluent monolayers of HepG2 cells were grown in 10% FCS/MEM on 8 chamber slides (#4808 Lab-tek -Naperville, Ill.) for 24 hours prior to each experiment. Sporozoites were pre-incubated in media alone or with the various polymers for 15 minutes at 4° C. 5×10^4 sporozoites, in a volume of 10 μl, were added per chamber. After 4 hours of incubation at 37° C., the medium containing the sporozoites was gently aspirated, and 0.5 ml MEM/10% FCS was added. Fresh medium was added at 18 hours and 28 hours, and then cells were fixed with methanol containing 0.3% H2O2 at 48 hours. After fixation, the wells were blocked with 10% FCS/PBS and were incubated with 10 μg/ml of mAb 2E6. Binding of the mAb was detected with a polyclonal goat anti-mouse Ig conjugated to horseradish peroxidase. […] The parasites in each well are counted under a 40× light microscope objective.
The cells were fixed and stained with mAb 2E6, followed by goat-anti-mouse linked to horseradish peroxidase. Numbers represent schizonts counted/20 fields under 40× magnification in a light microscope.

[4] = system: Vivax-2 binding to cholesterol-sulfate; assay: Inhibition of binding of Vivax-2 to cholesterol-sulfate; set-up: species or system P. vivax
Protocol: as §1

Substance | inhibition of CSFZ (Cys) binding to HepG2 cells [1] | inhibition of the binding of CS27IVC to liver sections [2] | effect on binding to sulfatide [3] | % INHIBITION ([3]; inhibitor 1 mg/ml) [%] | % INHIBITION ([4]; inhibitor 10 mg/ml) [%] | other results
AGNGIQVRIKPGSANKPKDE [Pf2A, Identical to Pf2 except the first cysteine has been replaced by an alanine residue] | not active | failed to inhibit |  |  |  | 
CGNGIQVRIKPGSANKPKDE [Pf2] | inhibited the CSFZ (Cys) binding; also recorded: competes much less effectively | inhibited the binding of CS27IVC |  |  |  | 
KPKHKKLKQPADGNPDPNAN [Pf70] | no inhibitory effect | failed to inhibit |  |  |  | 
PASVTAGNGIQVRIKPGSAN [Pf1A, Identical to Pf1 except alanine residues are substituted for the two cysteines] | not active | failed to inhibit |  |  |  | 
PCSVTCGNGIQVRIKPGSAN [Pf1] | inhibited the CSFZ (Cys) binding; also recorded: competes very effectively | inhibited the binding of CS27IVC |  |  |  | 
PGSANKPKDELDYANDIEKK [Pf3, Contains only a C-proximal moiety of Region II+] |  | failed to inhibit; also recorded: No inhibition of binding |  |  |  | 
PXSVTXGNGIQVRIKPGSAN (PC(Cam)SVTC(Cam)GNGIQVRIKPGSAN) [Pf1B] | not active | failed to inhibit |  |  |  | 
chondroitin-sulfate A [CHONDROITIN SULFATE-A] |  |  | no effect | 0 | 16 | PARASITE # (exoerythrocytic liver stages in 20 microscope fields, duplicate) (P. berghei sporozoites; inhibitor 5 μg/ml present during invasion): 250; effect on sporozoite invasion (P. berghei sporozoites; present during invasion, 5-50 μg/ml): no effect; % INHIBITION ([4]; inhibitor 1 mg/ml): 0%
chondroitin-sulfate B [CHONDROITIN SULFATE-B] |  |  | only slightly inhibitory | 34.3 |  | % INHIBITION ([3]; inhibitor 100 μg/ml): 22.3%; % INHIBITION ([4]; inhibitor 0 mg/ml (so in the source)): 51%; % INHIBITION ([4]; inhibitor 100 μg/ml): 0%; % INHIBITION ([4]; inhibitor 1 mg/ml): 27%
chondroitin-sulfate C [CHONDROITIN SULFATE-C] |  |  | no effect | 0 | 0 | 
dermatan sulfate |  |  | no effect |  |  | 
hyaluronic acid |  |  | no effect | 0 | 28 | % INHIBITION ([4]; inhibitor 1 mg/ml): 0%
keratan-sulfate |  |  | no effect | 37 | 0 | 
